Measured values published in US12157730B2, “Heteroaryl derivative, method for producing same, and pharmaceutical composition comprising same as effective component” (VORONOI INC., priority 2019, dated 2024).

Biological target: T1, Ba/F3 cell EGFR Exon20 ins NPH (Homo sapiens, UniProt P00533, INS773NPH)
T1 construct: expressed in transfected cells; host or cells: Ba/F3
Assay: Ba/F3 cell proliferation suppression, EGFR Exon20 ins NPH
Assay type: cell-based
Details: GI50 class; Ba/F3 cell line with NPH inserted at Exon20 of EGFR; 72 hours
Procedure, shortened: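 Seed 3000–5000 cells/well; after 24 h add compound (12 conc., 0.3 nM–50 um final); incubate 72 h; add CellTiter-Glo, 10 min room temperature; read luminescence; GI50 from % growth vs control, triplicate.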

Row | SMILES | Ba/F3 (NPH) Activity
1 | C=CC(=O)Nc1cc(Nc2cc(N3OCC[C@@H]3c3ccc(F)c(Cl)c3)ncn2)c(OC)cc1N1C[C@H]2C[C@@H]1CO2 [compound 903, N-(2-((1R,4R)-2-oxa-5-azabicyclo [2.2.1]heptane-5-yl)-5-((6-((R)-3-(3-chloro-4-fluorophenyl)isoxazolidine-2-yl)pyrimidine-4-yl)amino)-4-methoxyphenyl) acrylamide] | A (GI50 < 50 nM)
2 | C=CC(=O)Nc1cc(Nc2cc(N3OCC[C@@H]3c3cccc(C#N)c3)ncn2)c(OC)cc1N1CCC(N2CCN(C3CC3)C[C@@H]2C)CC1 [Example 132, N-(5-((6-((R)-3-(3-cyanophenyl)isoxazolidine-2-yl)pyrimidine-4-yl)amino)-2-(4-((S)-4-cyclopropyl-2-methylpiperazine-1-yl)piperidine-1-yl)-4-methoxyphenyl) acrylamide] | B (50 nM ≤ GI50 < 500 nM)
3 | C=CC(=O)Nc1cc(Nc2cc(N3OCC[C@@H]3c3cccc(Cl)c3)ncn2)c(OC)cc1N1C[C@@H]2C[C@H]1CO2 [compound 466, N-(2-((1S,4S)-2-oxa-5-azabicyclo[2.2.1]heptane-5-yl)-5-((6-((R)-3-(3-chlorophenyl)isoxazolidine-2-yl)pyrimidine-4-yl)amino)-4-methoxyphenyl) acrylamide] | B (50 nM ≤ GI50 < 500 nM)
4 | C=CC(=O)Nc1cc(Nc2cc(N3OCC[C@@H]3c3cccc(F)c3)ncn2)c(OC)cc1-n1ccnc1C [compound 861, N-(5-((6-((R)-3-(3-fluorophenyl)isoxazolidine-2-yl)pyrimidine-4-yl)amino)-4-methoxy-2-(2-methyl-1H-imidazole-1-yl)phenyl)acrylamide] | B (50 nM ≤ GI50 < 500 nM)
5 | C=CC(=O)Nc1cc(Nc2cc(N3OCC[C@@H]3c3ccc(Cl)c(Cl)c3F)ncn2)c(OC)cc1N1CCC(N2CCN(C3CC3)CC2)CC1 [Example 60, N-(2-(4-(4-cyclopropylpiperazine-1-yl)piperidine-1-yl)-5-((6-((R)-3-(3,4-dichloro-2-fluorophenyl)isoxazolidine-2-yl)pyrimidine-4-yl)amino)-4-methoxyphenyl) acrylamide;] | A (GI50 < 50 nM)
6 | C=CC(=O)Nc1cc(Nc2cc(N3OCC[C@@H]3c3cc(F)ccc3F)ncn2)c(OC)cc1N1C[C@H]2CCN(C)[C@H]2C1 [compound 892, N-(5-((6-((R)-3-(2,5-difluorophenyl)isoxazolidine-2-yl)pyrimidine-4-yl)amino)-4-methoxy-2-((3aR,6aR)-1-methylhexahydropyrrolo [3,4-b]pyrrole-5(1H)-yl)phenyl) acrylamide] | A (GI50 < 50 nM)
7 | C=CC(=O)Nc1cc(Nc2cc(N3OCC[C@@H]3c3ccc(C)nc3)ncn2)c(OC)cc1N1CCN(C)CC1 [Example 44, N-(4-methoxy-2-(4-methylpiperazine-1-yl)-5-((6-((R)-3-(6-methylpyridine-3-yl)isoxazolidine-2-yl)pyrimidine-4-yl)amino)phenyl) acrylamide] | B (50 nM ≤ GI50 < 500 nM)
8 | C=CC(=O)Nc1cc(Nc2cc(N3OCC[C@@H]3c3c(F)ccc(F)c3F)ncn2)c(OC)cc1N1CCC(N2CCN(C3CCC3)CC2)CC1 [Example 194, N-(2-(4-(4-cyclobutylpiperazine-1-yl)piperidine-1-yl)-4-methoxy-5-((6-((R)-3-(2,3,6-trifluorophenyl)isoxazolidine-2-yl)pyrimidine-4-yl)amino)phenyl)acrylamide] | A (GI50 < 50 nM)
9 | C=CC(=O)Nc1cc(Nc2cc(N3OCC[C@@H]3c3cc(F)ccc3F)ncn2)c(OC)cc1N1CCC(N2C[C@@H](C)N(C3CC3)C[C@@H]2C)CC1 [Example 174, N-(2-(4-((2S,5R)-4-cyclopropyl-2,5-dimethylpiperazine-1-yl)piperidine-1-yl)-5-((6-((R)-3-(2,5-difluorophenyl)isoxazolidine-2-yl)pyrimidine-4-yl)amino)-4-methoxyphenyl) acrylamide] | A (GI50 < 50 nM)
10 | C=CC(=O)Nc1cc(Nc2cc(N3OCC[C@@H]3c3cccc(Cl)c3)ncn2)c(OC)cc1N1CCC(N2CCN(C3CCC3)CC2)CC1 [Example 185, N-(5-((6-((R)-3-(3-chlorophenyl)isoxazolidine-2-yl)pyrimidine-4-yl)amino)-2-(4-(4-cyclobutylpiperazine-1-yl)piperidine-1-yl)-4-methoxyphenyl) acrylamide] | A (GI50 < 50 nM)
11 | C=CC(=O)Nc1cc(Nc2cc(N3OCC[C@@H]3c3cc(F)cc(Cl)c3)ncn2)c(OC)cc1N1CCC(N2CCN(C3CC3)C[C@H]2C)CC1 [Example 159, N-(5-((6-((R)-3-(3-chloro-5-fluorophenyl)isoxazolidine-2-yl)pyrimidine-4-yl)amino)-2-(4-((R)-4-cyclopropyl-2-methylpiperazine-1-yl)piperidine-1-yl)-4-methoxyphenyl) acrylamide] | A (GI50 < 50 nM)
12 | C=CC(=O)Nc1cc(Nc2cc(N3OCC[C@@H]3c3cccc(Cl)c3)ncn2)c(OC)cc1N1CCC(N2CCN(C3CC3)CC2)CC1 [Example 138, N-(5-((6-((R)-3-(3-chlorophenyl)isoxazolidine-2-yl)pyrimidine-4-yl)amino)-2-(4-(4-cyclopropylpiperazine-1-yl)piperidine-1-yl)-4-methoxyphenyl) acrylamide] | A (GI50 < 50 nM)
13 | C=CC(=O)Nc1cc(Nc2cc(N3OCC[C@@H]3c3ccc(Cl)c(F)c3)ncn2)c(OC)cc1N1CCC(N2C[C@@H]3C[C@H]2CN3C)CC1 [compound 857, N-(5-((6-((R)-3-(4-chloro-3-fluorophenyl)isoxazolidine-2-yl)pyrimidine-4-yl)amino)-4-methoxy-2-(4-((1S,4S)-5-methyl-2,5-diazabicyclo[2.2.1]heptane-2-yl)piperidine-1-yl)phenyl)acrylamide] | A (GI50 < 50 nM)
14 | C=CC(=O)Nc1cc(Nc2cc(N3OCC[C@@H]3c3cccc(F)c3F)ncn2)c(OC)cc1N1CCN(C2COC2)CC1 [compound 923, N-(5-((6-((R)-3-(2,3-difluorophenyl)isoxazolidine-2-yl)pyrimidine-4-yl)amino)-4-methoxy-2-(4-(oxetane-3-yl)piperazine-1-yl)phenyl) acrylamide] | A (GI50 < 50 nM)
15 | C=CC(=O)Nc1cc(Nc2cc(N3OCC[C@@H]3c3ccc(F)c(Cl)c3)ncn2)c(OC)cc1N1CCN(C2CC2)CC1 [compound 725, N-(5-((6-((R)-3-(3-chloro-4-fluorophenyl)isoxazolidine-2-yl)pyrimidine-4-yl)amino)-2-(4-cyclopropylpiperazine-1-yl)-4-methoxyphenyl) acrylamide] | A (GI50 < 50 nM)
16 | C=CC(=O)Nc1cc(Nc2cc(N3OCC[C@@H]3c3ccc(F)cc3)ncn2)c(OC)cc1N1CCC(N2CCN(C3COC3)CC2)CC1 [Example 85, N-(5-((6-((R)-3-(4-fluorophenyl)isoxazolidine-2-yl)pyrimidine-4-yl)amino)-4-methoxy-2-(4-(4-(oxetane-3-yl)piperazine-1-yl)piperidine-1-yl)phenyl) acrylamide] | A (GI50 < 50 nM)
17 | C=CC(=O)Nc1cc(Nc2cc(N3OCC[C@@H]3c3ccc(Cl)c(Cl)c3F)ncn2)c(OC)cc1N1CCC(N2C[C@@H]3C[C@H]2CO3)CC1 [compound 770, N-(2-(4-((1S,4S)-2-oxa-5-azabicyclo [2.2.1]heptane-5-yl)piperidine-1-yl)-5-((6-((R)-3-(3,4-dichloro-2-fluorophenyl)isoxazolidine-2-yl)pyrimidine-4-yl)amino)-4-methoxyphenyl) acrylamide] | A (GI50 < 50 nM)
18 | C=CC(=O)Nc1cc(Nc2cc(N3OCC[C@@H]3Cc3cc(F)cc(F)c3)ncn2)c(OC)cc1N(C)CCN(C)C [compound 1031, N-(5-((6-((S)-3-(3,5-difluorobenzyl)isoxazolidine-2-yl)pyrimidine-4-yl)amino)-2-((2-(dimethylamino)ethyl)(methyl)amino)-4-methoxyphenyl) acrylamide] | A (GI50 < 50 nM)
19 | C=CC(=O)Nc1cc(Nc2cc(N3OCC[C@@H]3c3ccc4ccccc4c3)ncn2)c(OC)cc1N1CCN(CC)CC1 [compound 514, N-(2-(4-ethylpiperazine-1-yl)-4-methoxy-5-((6-((R)-3-(naphthalene-2-yl)isoxazolidine-2-yl)pyrimidine-4-yl)amino)phenyl)acrylamide] | B (50 nM ≤ GI50 < 500 nM)
20 | C=CC(=O)Nc1cc(Nc2cc(N3OCC[C@@H]3c3cccc(Cl)c3Cl)ncn2)c(OC)cc1N1CCC(N2CCN(C3CCCC3)CC2)CC1 [Example 206, N-(2-(4-(4-cyclopentylpiperazine-1-yl)piperidine-1-yl)-5-((6-((R)-3-(2,3-dichlorophenyl)isoxazolidine-2-yl)pyrimidine-4-yl)amino)-4-methoxyphenyl) acrylamide] | B (50 nM ≤ GI50 < 500 nM)
21 | C=CC(=O)Nc1cc(Nc2cc(N3OCC[C@@H]3c3cc(F)ccc3F)ncn2)c(OC)cc1N1CCC(N2C[C@@H]3C[C@H]2CO3)CC1 [compound 826, N-(2-(4-((1S,4S)-2-oxa-5-azabicyclo [2.2.1]heptane-5-yl)piperidine-1-yl)-5-((6-((R)-3-(2,5-difluorophenyl)isoxazolidine-2-yl)pyrimidine-4-yl)amino)-4-methoxyphenyl) acrylamide] | A (GI50 < 50 nM)
22 | C=CC(=O)Nc1cc(Nc2cc(N3OCC[C@@H]3c3ccc(Cl)cc3F)ncn2)c(OC)cc1N1CCC(N2CCC(N(C)C)CC2)CC1 [compound 410, N-(5-((6-((R)-3-(4-chloro-2-fluorophenyl)isoxazolidine-2-yl)pyrimidine-4-yl)amino)-2-(4-(dimethylamino)-[1,4'-bipiperidine]-1'-yl)-4-methoxyphenyl) acrylamide] | B (50 nM ≤ GI50 < 500 nM)
23 | C=CC(=O)Nc1cc(Nc2cc(N3OCC[C@@H]3c3ccc(F)cc3)ncn2)c(OC)cc1N1CCN(C)CC1 [compound 785, N-(5-((6-((R)-3-(4-fluorophenyl)isoxazolidine-2-yl)pyrimidine-4-yl)amino)-4-methoxy-2-(4-methylpiperazine-1-yl)phenyl)acrylamide] | A (GI50 < 50 nM)
